Test results reported in PubChem BioAssay AID330 (DTP/NCI, 2004).
“And” between values parts separate entries of the source, which are not always exact repeats. Equal entries are not always repeated. Inconclusive results and toxic doses are left out.

Tested on: P388 leukemia ip, CD2F1 mice, survival T/C
Test: NCI In Vivo Anticancer Drug Screen. Data for tumor model P388 Leukemia (intraperitoneal) in CD2F1 (CDF1) mice
Conditions: endpoint: median survival time, higher = longer survival
Outline: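 Mice carrying the transplanted tumor received test compound or vehicle. Survival was recorded in each group, and the value is the treated-group measurement divided by that of the vehicle-treated control group.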

[1] = dose: 25.0 mg/kg/injection, schedule: Q01DX009 (ip), vehicle: saline
[2] = dose: 50.0 mg/kg/injection, schedule: Q01DX009 (ip), vehicle: saline
[3] = dose: 100.0 mg/kg/injection, schedule: Q01DX009 (ip), vehicle: saline
[4] = dose: 60.0 mg/kg/injection, schedule: Q01DX005 (ip), vehicle: saline
[5] = dose: 120.0 mg/kg/injection, schedule: Q01DX005 (ip), vehicle: saline
[6] = dose: 240.0 mg/kg/injection, schedule: Q01DX005 (ip), vehicle: saline
[7] = dose: 100.0 mg/kg/injection, schedule: Q04DX002 (ip), vehicle: saline with Tween-80
[8] = dose: 200.0 mg/kg/injection, schedule: Q04DX002 (ip), vehicle: saline with Tween-80
[9] = dose: 100.0 mg/kg/injection, schedule: Q01DX001 (ip), vehicle: Klucel (hydroxypropylcellulose) (HPC)
[10] = dose: 50.0 mg/kg/injection, schedule: Q01DX009 (ip), vehicle: saline with Tween-80
[11] = dose: 100.0 mg/kg/injection, schedule: Q01DX009 (ip), vehicle: saline with Tween-80
[12] = dose: 100.0 mg/kg/injection, schedule: Q04DX003 (ip), vehicle: saline
[13] = dose: 50.0 mg/kg/injection, schedule: Q01DX005 (ip), vehicle: Klucel (hydroxypropylcellulose) (HPC)
[14] = dose: 100.0 mg/kg/injection, schedule: Q01DX005 (ip), vehicle: Klucel (hydroxypropylcellulose) (HPC)
[15] = dose: 200.0 mg/kg/injection, schedule: Q01DX005 (ip), vehicle: Klucel (hydroxypropylcellulose) (HPC)

Structure (SMILES): O=NNc1cccnc1Cl
- T/C (dose: 1.56 mg/kg/injection, schedule: Q01DX009 (ip), vehicle: water): 110 % of control
- T/C (dose: 3.12 mg/kg/injection, schedule: Q01DX009 (ip), vehicle: water): 102 % of control and 108 % of control
- T/C (dose: 6.25 mg/kg/injection, schedule: Q01DX009 (ip), vehicle: water): 99 % of control and 98 % of control
- T/C (dose: 12.5 mg/kg/injection, schedule: Q01DX009 (ip), vehicle: water): 107 % of control and 110 % of control
- T/C (dose: 25.0 mg/kg/injection, schedule: Q01DX009 (ip), vehicle: water): 107 % of control and 117 % of control
- T/C (dose: 50.0 mg/kg/injection, schedule: Q01DX009 (ip), vehicle: water): 105 % of control

Structure (SMILES): O=S=C(c1ccccc1)N1CCc2ccccc21
- T/C [1]: 97 % of control
- T/C [2]: 97 % of control
- T/C [3]: 89 % of control

Structure (SMILES): CC12CC3OC(=O)C1COC14OC5(C2C1=O)C(O)(CCC1C4CC(O)C2(O)CC=CC(=O)C12C)C(=O)OC35C (centres undefined)
- T/C (dose: 12.0 mg/kg/injection, schedule: Q01DX009 (ip), vehicle: Klucel (hydroxypropylcellulose) (HPC)): 94 % of control
- T/C (dose: 24.0 mg/kg/injection, schedule: Q01DX009 (ip), vehicle: Klucel (hydroxypropylcellulose) (HPC)): 110 % of control
- T/C (dose: 48.0 mg/kg/injection, schedule: Q01DX009 (ip), vehicle: Klucel (hydroxypropylcellulose) (HPC)): 109 % of control

Structure (SMILES): CN(C)CCC(=O)C(=Cc1ccco1)C(=O)CCN(C)C
- T/C [4]: 100 % of control
- T/C [5]: 104 % of control
- T/C [6]: 109 % of control

Structure (SMILES): Cc1ccc2sc3c(ccc(=O)n3C)c(=O)c2c1
- T/C [7]: 115 % of control
- T/C [8]: 120 % of control

Structure (SMILES): CCCCCCCCCCCCCCCC(=O)N(CCCCN(C)C)CCCCN(C)C
- T/C (dose: 1.0 mg/kg/injection, schedule: Q01DX009 (ip), vehicle: saline): 86 % of control and 95 % of control
- T/C (dose: 2.0 mg/kg/injection, schedule: Q01DX009 (ip), vehicle: saline): 97 % of control
- T/C (dose: 4.0 mg/kg/injection, schedule: Q01DX009 (ip), vehicle: saline): 97 % of control
- T/C (dose: 8.0 mg/kg/injection, schedule: Q01DX009 (ip), vehicle: saline): 103 % of control

Structure (SMILES): Nc1nnc2nc(CC(=O)c3ccc([N+](=O)[O-])cc3)c(CC(=O)c3ccc([N+](=O)[O-])cc3)nn12
- T/C [4]: 98 % of control
- T/C [5]: 100 % of control
- T/C [6]: 100 % of control

Structure (SMILES): CCOC(CCl)(NC(C)=O)C(=O)OC (centres undefined)
- T/C [9]: 104 % of control
- T/C (dose: 200.0 mg/kg/injection, schedule: Q01DX001 (ip), vehicle: Klucel (hydroxypropylcellulose) (HPC)): 100 % of control
- T/C (dose: 400.0 mg/kg/injection, schedule: Q01DX001 (ip), vehicle: Klucel (hydroxypropylcellulose) (HPC)): 106 % of control

Structure (SMILES): Cc1cc2cc(CN)ccc2n1C
- T/C [9]: 103 % of control

Structure (SMILES): CCCCCCCCCCCCOC(=O)c1ccc(Br)cc1
- T/C (dose: 100.0 mg/kg/injection, schedule: Q01DX009 (ip), vehicle: Klucel (hydroxypropylcellulose) (HPC)): 104 % of control
- T/C (dose: 200.0 mg/kg/injection, schedule: Q01DX009 (ip), vehicle: Klucel (hydroxypropylcellulose) (HPC)): 102 % of control

Structure (SMILES): O=C1CSC(=S)N1CCCN1CCOCC1
- T/C [10]: 104 % of control
- T/C [11]: 106 % of control
- T/C (dose: 200.0 mg/kg/injection, schedule: Q01DX009 (ip), vehicle: saline with Tween-80): 101 % of control

Structure (SMILES): CC1CN1P1(N2CC2C)=NP(N2CC2C)(N2CC2C)=NP(N2CC2C)(N2CC2C)=N1 (centres undefined)
- T/C (dose: 12.5 mg/kg/injection, schedule: Q04DX003 (ip), vehicle: saline): 100 % of control
- T/C [1]: 154 % of control
- T/C (dose: 25.0 mg/kg/injection, schedule: Q04DX003 (ip), vehicle: saline): 112 % of control
- T/C (dose: 33.0 mg/kg/injection, schedule: Q01DX009 (ip), vehicle: saline with Tween-80): 154 % of control
- T/C [10]: 170 % of control and 193 % of control
- T/C [2]: 172 % of control
- T/C (dose: 66.0 mg/kg/injection, schedule: Q04DX003 (ip), vehicle: saline): 154 % of control
- T/C (dose: 75.0 mg/kg/injection, schedule: Q01DX009 (ip), vehicle: saline with Tween-80): 218 % of control
- T/C [11]: 102 % of control
- T/C [3]: 90 % of control
- T/C [12]: 181 % of control

Structure (SMILES): NC(CSC(c1ccccc1)(c1ccccc1)c1ccccc1)C(=O)OC(c1ccccc1)c1ccccc1 (centres undefined)
- T/C (dose: 400.0 mg/kg/injection, schedule: Q04DX003 (ip), vehicle: saline with Tween-80): 150 % of control and 154 % of control
- T/C (dose: 600.0 mg/kg/injection, schedule: Q04DX003 (ip), vehicle: saline with Tween-80): 109 % of control

Structure (SMILES): C[N+]1=CN(S(=O)(=O)C2C=CC=CC=C2)C(C)(C)C1(C)C
- T/C [12]: 103 % of control
- T/C (dose: 200.0 mg/kg/injection, schedule: Q04DX003 (ip), vehicle: saline): 103 % of control
- T/C (dose: 400.0 mg/kg/injection, schedule: Q04DX003 (ip), vehicle: saline): 99 % of control

Structure (SMILES): CCOP(=S)(N/N=C/c1c(CO)cnc(C)c1O)OCC
- T/C [13]: 98 % of control
- T/C [14]: 102 % of control
- T/C [15]: 101 % of control

Structure (SMILES): CC(C)(C)c1cc(NC(=O)C(F)(F)F)c(Cl)c(C(C)(C)C)c1O
- T/C [13]: 109 % of control
- T/C [14]: 100 % of control
- T/C [15]: 108 % of control

Structure (SMILES): CC(=O)NCC1CC2(Cl)C(Cl)=C(Cl)C1(Cl)C2(Cl)Cl (centres undefined)
- T/C [13]: 101 % of control
- T/C [14]: 106 % of control
- T/C [15]: 106 % of control

Structure (SMILES): COC(=O)[C@@]12OC[C@]34C([C@@H](O)C1O)[C@@]1(C)CC(=O)C(O)=C(C)C1C[C@H]3OC(=O)[C@H](OC(=O)c1ccccc1Cl)[C@H]42 (some centres undefined)
- T/C (dose: 0.25 mg/kg/injection, schedule: Q01DX005 (ip), vehicle: DMSO): 110 % of control
- T/C (dose: 0.5 mg/kg/injection, schedule: Q01DX005 (ip), vehicle: DMSO): 110 % of control
- T/C (dose: 1.0 mg/kg/injection, schedule: Q01DX005 (ip), vehicle: DMSO): 105 % of control and 97 % of control
- T/C (dose: 2.0 mg/kg/injection, schedule: Q01DX005 (ip), vehicle: DMSO): 107 % of control and 112 % of control
- T/C (dose: 4.0 mg/kg/injection, schedule: Q01DX005 (ip), vehicle: DMSO): 109 % of control
- T/C (dose: 8.0 mg/kg/injection, schedule: Q01DX005 (ip), vehicle: DMSO): 101 % of control and 107 % of control
- T/C (dose: 16.0 mg/kg/injection, schedule: Q01DX005 (ip), vehicle: DMSO): 108 % of control
- T/C (dose: 32.0 mg/kg/injection, schedule: Q01DX005 (ip), vehicle: DMSO): 107 % of control

Structure (SMILES): C=CCC(C(=C)Sc1ccccc1)S(=O)(=O)c1ccccc1 (centres undefined)
- T/C [7]: 115 % of control
- T/C [8]: 109 % of control
- T/C (dose: 400.0 mg/kg/injection, schedule: Q04DX002 (ip), vehicle: saline with Tween-80): 105 % of control

Structure (SMILES): CCC[CH2][Pb]([Cl])([CH2]CCC)[CH2]CCC
- T/C (dose: 1.25 mg/kg/injection, schedule: Q01DX009 (ip), vehicle: saline with Tween-80): 99 % of control
- T/C (dose: 2.5 mg/kg/injection, schedule: Q01DX009 (ip), vehicle: saline with Tween-80): 99 % of control
- T/C (dose: 5.0 mg/kg/injection, schedule: Q01DX009 (ip), vehicle: saline with Tween-80): 107 % of control
- T/C (dose: 10.0 mg/kg/injection, schedule: Q01DX009 (ip), vehicle: saline with Tween-80): 103 % of control

Structure (SMILES): COc1cccc2c1C(=O)c1c(O)c3c(c(O)c1C2=O)C[C@@](O)(/C(C)=N/NC(=O)c1ccc(Cl)c(Cl)c1)C[C@@H]3OC1CC(N)C(O)C(C)O1 (some centres undefined)
- T/C (dose: 0.12 mg/kg/injection, schedule: Q01DX009 (ip), vehicle: water): 117 % of control
- T/C (dose: 0.5 mg/kg/injection, schedule: Q01DX009 (ip), vehicle: water): 157 % of control
- T/C (dose: 1.0 mg/kg/injection, schedule: Q01DX009 (ip), vehicle: water): 166 % of control
- T/C (dose: 2.0 mg/kg/injection, schedule: Q01DX009 (ip), vehicle: water): 155 % of control and 175 % of control
- T/C (dose: 4.0 mg/kg/injection, schedule: Q01DX009 (ip), vehicle: water): 163 % of control
- T/C (dose: 5.0 mg/kg/injection, schedule: Q01DX001 (ip), vehicle: water): 159 % of control
- T/C (dose: 10.0 mg/kg/injection, schedule: Q01DX001 (ip), vehicle: water): 168 % of control
- T/C (dose: 20.0 mg/kg/injection, schedule: Q01DX001 (ip), vehicle: water): 123 % of control

Structure (SMILES): COc1ccc(N=C(CC(C)C)C2C(=O)c3ccccc3C2=O)cc1
- T/C [13]: 100 % of control
- T/C [14]: 109 % of control
- T/C [15]: 104 % of control
